Measured values taken from article PMC4979471 (Cell Death Discovery, 2015).
“Also recorded” adds a separate entry of the source.

Key:
[1] = tested on: primary human neutrophils; assay: TNF, zVAD and SMAC mimetic-induced necroptosis, CellTiter-Glo; type: cell-based; settings: Neutrophil, read-out: IC50 blocking necroptosis
Protocol: (§1) Mouse fibrosarcoma L929 cells (ATCC# CCL-1) and human monocytic U937 cells (ATCC# CRL-1593.2) were cultured in RPMI media supplemented with 10% heat-inactivated FBS, 100 U/ml penicillin and […] streptomycin. BMDM were prepared from C57BL/6 mice by differentiation with 10 ng/ml M-CSF (R&D Systems) for 7 days and cultured in DMEM medium supplemented with 10% heat-inactivated FBS, 100 U/ml penicillin, 100 μg/ml streptomycin and 0.25 μg/ml amphotericin. Primary human neutrophils were isolated from human blood following the standard method comprised of sequential sedimentation in dextran, density centrifugation in Ficoll–Hypaque and lysis of contaminating red blood cells.
Necroptotic cell death was induced in BMDM, L929 and U937 cells with TNF in the presence of caspase inhibitor zVAD-FMK or QVD-Oph (BMDM: 50 ng/ml TNF+50 μM zVAD; L929: 100 ng/ml TNF+50 μM QVD; U937: 100 ng/ml TNF+25 μM QVD). To evaluate the effect of RIP1 inhibitors, cells were pretreated with compound (dose–response) for 30 min. Induced cell death was evaluated 19–21 h later by measuring cellular ATP levels using CellTiter-Glo Luminescent Cell Viability assay (Promega, Fitchburg, WI, USA). […] Induced cell death was evaluated as above.

[2] = tested on: human monocytic U937 cells; assay: TNF+zVAD-induced necroptosis, CellTiter-Glo; type: cell-based; settings: U-937, U937, overnight, read-out: IC50 blocking necroptosis
Protocol: as §1
(§2) […] To evaluate the effect of RIP1 inhibitors, cells were pretreated with compound (dose–response) for 30 min. Induced cell death was evaluated 19–21 h later by measuring cellular ATP levels using CellTiter-Glo Luminescent Cell Viability assay (Promega, Fitchburg, WI, USA). To induce necroptosis in neutrophils, freshly isolated human neutrophils were stimulated with TNF (10 ng/ml), QVD-Oph (50 μM) and SMAC mimetic (100 nM). Induced cell death was evaluated as above.

[3] = tested on: mouse fibrosarcoma L929 cells; assay: TNF+zVAD-induced necroptosis, CellTiter-Glo; type: cell-based; settings: overnight, read-out: IC50 blocking necroptosis
Protocol: as §1, §2

recombinant human IDO = target: T1, recombinant human IDO (Homo sapiens, UniProt P14902); assay: IDO enzymatic assay; type: biochemical; settings: in vitro enzymatic assay
T1 construct: purchased R&D Systems (Minneapolis, MN, USA)
T1 sequence (P14902 whole entry): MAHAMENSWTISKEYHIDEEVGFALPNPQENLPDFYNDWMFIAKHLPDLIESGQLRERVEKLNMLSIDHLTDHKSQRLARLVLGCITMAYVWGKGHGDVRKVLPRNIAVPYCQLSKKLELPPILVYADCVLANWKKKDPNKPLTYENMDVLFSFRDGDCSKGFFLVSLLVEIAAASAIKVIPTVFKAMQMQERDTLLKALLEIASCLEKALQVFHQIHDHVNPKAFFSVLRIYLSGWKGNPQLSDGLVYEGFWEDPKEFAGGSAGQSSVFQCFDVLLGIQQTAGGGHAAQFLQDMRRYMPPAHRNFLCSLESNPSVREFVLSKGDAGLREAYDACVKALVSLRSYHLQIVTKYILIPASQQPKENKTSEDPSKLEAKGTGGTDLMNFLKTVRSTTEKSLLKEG
Protocol: IDO activity was determined as described by Takahashi et al.[25] using recombinant human IDO purchased from R&D Systems (Minneapolis, MN, USA). The yellow pigment derived from kynurenine was measured at 490 nm using the Spectramax microplate reader (Molecular Devices).

With CC(C)(C)C(=O)N1N=CC[C@H]1c1ccccc1 [GSK′963] the IC50 [1] was 0.9 nM, the IC50 [2] was 4 nM and the IC50 [3] was 1 nM. The “effect on IDO activity” value (recombinant human IDO) was “lacks measurable activity; also recorded: no effect; also recorded: inactive”.
